Measured values as given in patent US5814600A, “Method and composition for treatment of insulin requiring mammals” (Amylin Pharmaceuticals Inc., priority 1994, dated 1998).

System: rat soleus muscle
Type: cell-based
Conditions: 4 h
Protocol: Male Harlan Sprague Dawley rats of approximately 200 g mass were used in order to maintain soleus muscle mass less than 40 mg. The animals were fasted for 4 hours prior to sacrifice by decapitation. The skin was stripped from the lower limb which was then pinned out on cork board. The tendo achilles was cut just above os […]. gastrocnemius reflected out from the posterior aspect of the tibia. M. soleus, a small […], 0.55 mm thick flat muscle on the bone surface of m. gastrocnemius was then stripped clear and the perimysium cleaned off using fine scissors and forceps. M. soleus was then split into equal parts using a blade passed antero-posteriorly through the belly of the muscle to obtain a total of 4 muscle strips from each animal. After dissecting the muscle from the animal, it was kept for a short period in physiological saline. The muscle was not held under tension, as reported in other methodologies since in our hands this had no demonstrable effect on the insulin-sensitivity of radioglucose incorporation into glycogen. Muscles were added to 50 mL Erlenmeyer flasks containing 10 mL of a pregassed Krebs-Ringer bicarbonate buffer containing (mM) NaCl 118.5; KCl 5.94; CaCl2 2.54; MgSO4 1.19; KH2 PO4 1.19; NaHCO3 25; glucose 5.5; and recombinant human insulin (Humulin-R, Eli Lilly, Ind.) and either synthetic rat (Bachem, Torrance, Calif. Lot# ZG485) or synthetic human amylin (Bachem, Torrance, Calif. Lot# ZH144) as detailed below. Methods used to determine the nature and purity of rat and human amylin included quantitative amino acid analysis, gas phase amino acid sequencing, reverse phase HPLC and fast-atom-bombardment mass spectrometry. […] Incorporation of mercury into rat amylin may be a feature of many commercially available batches that have already been used in published studies. Since the peptide was bioactive, its action in muscle was expected to at least qualitatively mimic that of true rat amylin. The mercuric method of cyclization was not used in the synthesis of human amylin, which is found by electrospray ionization mass spectrometry and atomic absorption spectroscopy to be mercury-free. Muscles were assigned to different flasks so that the four muscle pieces from each animal were evenly distributed among the different assay conditions. The incubation media were gassed by gently blowing carbogen (95% O2, 5% CO2) over the surface while it was continuously agitated at 37° C. in an oscillating water bath. pH of gassed media at 37° C. was verified as being between 7.1 and 7.4. After a half-hour preincubation, 0.5 μCi of [U-^14 C]-glucose was added to each flask for a further 60 minutes. Each muscle piece was then rapidly removed, trimmed of tendons, blotted, frozen in liquid N2, weighed and then stored at […] for subsequent determination of ^14 C-glycogen. The incubation medium was also frozen for subsequent analysis. The concentration of human amylin present in the medium at the end of the incubation was determined by radioimmunoassay in surfactant-containing buffer. For both human and rat amylin, the actual mass added to the incubation medium was determined by quantitative amino-acid analysis. Each frozen muscle specimen was placed in a vial with 1 mL 60% potassium hydroxide (wt/vol) and digested at 70° C. for 45 minutes under intermittent vigorous agitation. Dissolved glycogen was precipitated onto the walls of the vial by addition of 3 mL absolute ethanol and overnight cooling at -20° C. After centrifugation for 30 minutes at 2000 x-- g, the supernatant was gently aspirated, the glycogen was again washed with ethanol and centrifuged, the ethanol aspirated and the precipitate dried under vacuum. It was important to evaporate all ethanol to avoid quenching during scintillation counting. The remaining glycogen was redissolved in 1 mL water and 4 mL scintillation fluid and counted for ^14 C. […]

SMILES: CC[C@H](C)[C@H](NC(=O)[C@H](C)NC(=O)CNC(=O)[C@H](Cc1ccccc1)NC(=O)[C@H](CC(N)=O)NC(=O)[C@H](CC(N)=O)NC(=O)[C@H](CO)NC(=O)[C@H](CO)NC(=O)[C@H](Cc1c[nH]cn1)NC(=O)[C@@H](NC(=O)[C@H](CC(C)C)NC(=O)[C@H](Cc1ccccc1)NC(=O)[C@H](CC(N)=O)NC(=O)[C@H](C)NC(=O)[C@H](CC(C)C)NC(=O)[C@H](CCCNC(=N)N)NC(=O)[C@H](CCC(N)=O)NC(=O)[C@@H](NC(=O)[C@H](C)NC(=O)[C@@H]1CSSC[C@H](NC(=O)[C@@H](N)CCCCN)C(=O)N[C@@H](CC(N)=O)C(=O)N[C@@H]([C@@H](C)O)C(=O)N[C@@H](C)C(=O)N[C@@H]([C@@H](C)O)C(=O)N1)[C@@H](C)O)C(C)C)C(=O)N[C@@H](CC(C)C)C(=O)N[C@@H](CO)C(=O)N[C@@H](CO)C(=O)N[C@H](C(=O)N[C@@H](CC(N)=O)C(=O)N[C@H](C(=O)NCC(=O)N[C@@H](CO)C(=O)N[C@@H](CC(N)=O)C(=O)N[C@H](C(=O)N[C@@H](Cc1ccc(O)cc1)C(N)=O)[C@@H](C)O)C(C)C)[C@@H](C)O [human amylin]
- EC50: 438 pM
